Earlier results in paper PMC5599218 (Biomaterials, 2017).
Values joined by “and” are separate entries in the source; they are usually repeats but may differ in a detail not shown here. Equal values may be shown once.

Experiments:
HIV-1 = conditions: ref [52]
[1] = oral daily dosing, 12h after the last dose; ref [52]
[2] = women using DPV vaginal rings for 7d; ref [54]
[3] = DPV vaginal films, after 6h exposure, estimated; ref [59]

## Cc1cc(C#N)cc(C)c1Oc1nc(Nc2ccc(C#N)cc2)nc(N)c1Br [ETR, etravirine]
HIV-1
  in vitro IC50: ~ 2 ng/mL
[1]
  ETR concentration in cervicovaginal fluid (CVF): 0.857 µg/mL

## Cc1cc(C)c(Nc2ccnc(Nc3ccc(C#N)cc3)n2)c(C)c1 [DPV, Dapivirine]
[2]
  Mean vaginal fluid concentrations of DPV: 0.7 to 7.1 µg/mL
[3]
  DPV provided to human cervical explant tissues: 152–334 nM and 0.05–0.11 μg/mL
